Series [1] can be described thus: Inhibition of recombinant mouse GALK1 using ATP as substrate incubated for 1 hr and measured by Kinase-Glo assay.
Series [2] is described as follows: Stability of compound in rat microsomes assessed as half-life. The format is ADME, Microsome.
Series [3] can be described thus: Kinetic aqueous solubility of the compound. The format is physicochemical. Particulars: buffer; read-out: Kinetic_solubility; call rule not given here.

Values after ≈ are worked out from the molar mass of the structure shown.

As for `CC1=C(C(=O)Nc2nncs2)C(c2n[nH]cc2Br)N=C(Nc2nc3ccccc3o2)N1` (stereo not drawn), the IC50 in series [1] (read-out: IC50) turned out to be 19.3 µM. In series [2], the half-life is over 30 min. Also, in series [3], the solubility kinetic was 11.4 µg/mL (≈ 22.8 µM).
In the case of `CC1=C(C(=O)NCc2cnn(CC(F)(F)F)c2)C(c2ccc(C)cc2Cl)N=C(Nc2nc3ccc(F)c(N)c3o2)N1` (stereo not drawn), the half-inhibitory concentration (IC50) in series [1] (read-out: IC50) amounted to 3.06 µM. Further, the half-life in series [2] was found to be 18.7 min. The solubility kinetic in series [3] was 1.56 µg/mL (≈ 2.64 µM).
For `CC1=C(C(=O)Nc2ccc(Cl)cn2)C(c2ccccc2Cl)N=C(Nc2nc3ccccc3o2)N1` (stereo not drawn), the IC50 result in series [1] was “Not Active”. The half-life in series [2] is 30.8 min. For the same compound, the solubility kinetic in series [3] was under 1 µg/mL.
On to `COC(=O)c1cccc(CNC(=O)C2=C(C)NC(Nc3nc4ccccc4o3)=NC2c2ccccc2Cl)c1` (stereo not drawn), for which the IC50 in series [1] (read-out: IC50) was found to be 7.69 µM. In series [2], the half-life came to 3.42 min. Besides, in series [3], the solubility kinetic is under 1 µg/mL.
The corresponding values for `CC1=C(C(=O)Nc2ccccn2)C(c2ccccc2Cl)N=C(Nc2nc3ccc(F)cc3o2)N1` (stereo not drawn) are 10.9 µM, over 30 min and under 1 µg/mL.
In the case of `CC1=C(C(=O)Nc2cc(C(N)=O)ccn2)C(c2ccccc2Cl)N=C(Nc2nc3ccccc3o2)N1` (stereo not drawn), in series [1] (read-out: IC50), the IC50 was found to be 7.69 µM. Further, the half-life in series [2] is over 30 min. For the same compound, the solubility kinetic in series [3] was under 1 µg/mL.
With `CC1=C(C(=O)Nc2cc(C(=O)O)ccn2)C(c2ccc(-c3ccc(C(F)(F)F)cc3)cc2Cl)N=C(Nc2nc3ccc(F)cc3o2)N1` (stereo not drawn), the IC50 in series [1] (read-out: IC50) amounted to 21.7 µM. Also, in series [2], the half-life is over 30 min. Moreover, the solubility kinetic in series [3] is 8.1 µg/mL (≈ 12.2 µM).
Turning to `CC(C)CC1=C(C(=O)Nc2nncs2)C(c2ccccc2Cl)N=C(Nc2nc3ccccc3o2)N1` (stereo not drawn), the IC50 in series [1] (read-out: IC50) is 17.2 µM. The half-life in series [2] is over 30 min. Besides, the solubility kinetic in series [3] was under 1 µg/mL.
As for `CC1=C(C(=O)NCc2cnn(C)c2)[C@H](c2ccc(C)cc2Cl)N=C(Nc2nc3cccc(N)c3o2)N1`, the IC50 in series [1] (read-out: IC50) was determined as 1.58 µM. The half-life in series [2] was 18.9 min. Also, the solubility kinetic in series [3] came to 17.1 µg/mL (≈ 33.9 µM).
Regarding `CC1=C(C(=O)Nc2nncs2)C(c2n[nH]cc2Cl)N=C(Nc2nc3ccccc3o2)N1` (stereo not drawn), the IC50 in series [1] (read-out: IC50) is 54.4 µM. In addition, the half-life in series [2] was over 30 min. For the same compound, the solubility kinetic in series [3] was 34.6 µg/mL (≈ 75.9 µM).
With `CC1=C(C(=O)Nc2cc(C(=O)O)ccc2C)C(c2ccccc2Cl)N=C(Nc2nc3ccc(F)cc3o2)N1` (stereo not drawn), the IC50 in series [1] (read-out: IC50) is 17.2 µM.
`CCn1cc(CNC(=O)C2=C(C)NC(Nc3nc4cccc(N)c4o3)=NC2c2ccc(C)cc2Cl)cn1` (stereo not drawn): the IC50 in series [1] (read-out: IC50) is 3.06 µM. Moreover, the half-life in series [2] is 11.3 min. Further, the solubility kinetic in series [3] was 2.43 µg/mL (≈ 4.68 µM).
The corresponding values for `CC1=C(C(=O)NCc2cnn(C)c2)C(c2ccc(Cl)cc2Cl)N=C(Nc2nc3cccc(N)c3o2)N1` (stereo not drawn) are 6.85 µM, 17.8 min and 15.6 µg/mL (≈ 29.7 µM).
As for `CCn1nc(C)c(CNC(=O)C2=C(C)NC(Nc3nc4ccc(F)c(N)c4o3)=NC2c2ccc(C)cc2Cl)c1F` (stereo not drawn), the IC50 in series [1] (read-out: IC50) was determined as 2.17 µM. The half-life in series [2] is 3.55 min. Also, the solubility kinetic in series [3] was 1.53 µg/mL (≈ 2.69 µM).
Take `CC1=C(C(=O)Nc2cc(N(C)C)ccn2)C(c2ccc(C)cc2Cl)N=C(Nc2nc3ccc(F)cc3o2)N1` (stereo not drawn): the IC50 in series [1] (read-out: IC50) came to 6.85 µM. Besides, the half-life in series [2] was found to be 17.6 min. Besides, the solubility kinetic in series [3] turned out to be 6.2 µg/mL (≈ 11.6 µM).
Take `COC(=O)c1ccnc(NC(=O)C2=C(C)NC(Nc3nc4ccccc4o3)=NC2c2ccccc2Cl)c1` (stereo not drawn): in series [1] (read-out: IC50), the concentration for half-maximal inhibition (IC50) turned out to be 5.44 µM. Also, in series [2], the half-life worked out at 18.4 min. The solubility kinetic in series [3] was under 1 µg/mL.
As to `COC(=O)c1cccc(NC(=O)C2=C(C)NC(Nc3nc4ccccc4o3)=NC2c2ccccc2Cl)n1` (stereo not drawn), the IC50 in series [1] (read-out: IC50) was determined as 12.2 µM. Also, the half-life in series [2] is over 30 min. Also, in series [3], the solubility kinetic was under 1 µg/mL.
With `CC1=C(C(=O)Nc2cc(C(=O)O)ccc2F)C(c2ccccc2Cl)N=C(Nc2nc3ccc(F)cc3o2)N1` (stereo not drawn), the IC50 in series [1] (read-out: IC50) worked out at 6.85 µM. Moreover, the half-life in series [2] is over 30 min. Further, the solubility kinetic in series [3] came to 35.7 µg/mL (≈ 66.4 µM).
Take `CC1=C(C(=O)NCc2cnn(Cc3ccccc3)c2)C(c2ccc(C)cc2Cl)N=C(Nc2nc3cccc(N)c3o2)N1` (stereo not drawn): the IC50 in series [1] (read-out: IC50) came to 5.44 µM. For the same compound, the half-life in series [2] worked out at 6.73 min. Moreover, the solubility kinetic in series [3] was under 1 µg/mL.
With `CC1=C(C(=O)Nc2ccc(CN)cc2)C(c2ccccc2Cl)N=C(Nc2nc3ccccc3o2)N1` (stereo not drawn), the IC50 in series [1] (read-out: IC50) was determined as 4.32 µM. Also, the half-life in series [2] amounted to 72.5 min. Besides, the solubility kinetic in series [3] is 10 µg/mL (≈ 20.5 µM).
Regarding `CC1=C(C(=O)Nc2nc(C(=O)O)cs2)C(c2ccccc2Cl)N=C(Nc2nc3ccccc3o2)N1` (stereo not drawn), the concentration for half-maximal inhibition (IC50) in series [1] (read-out: IC50) was 19.3 µM.
For the compound `CC1=C(C(=O)NCc2cnn(C(C)(C)C)c2)C(c2ccc(C)cc2Cl)N=C(Nc2nc3ccc(F)c(N)c3o2)N1` (stereo not drawn), the half-maximal inhibitory concentration (IC50) in series [1] (read-out: IC50) came out at 4.32 µM. Moreover, in series [2], the half-life was 14.4 min. The solubility kinetic in series [3] is under 1 µg/mL.
For the compound `CC1=C(C(=O)Nc2nncs2)C(c2ccccc2Br)N=C(Nc2nc3ccccc3o2)N1` (stereo not drawn), the IC50 in series [1] (read-out: IC50) came out at 9.68 µM. In series [2], the half-life is over 30 min. Further, in series [3], the solubility kinetic is under 1 µg/mL.
In the case of `COC(=O)c1cncc(NC(=O)C2=C(C)NC(Nc3nc4ccccc4o3)=NC2c2ccccc2Cl)c1` (stereo not drawn), the half-life in series [2] is over 30 min. Further, the solubility kinetic in series [3] was under 1 µg/mL.
For `CC1=C(C(=O)Nc2ccc(-n3cncn3)cc2)C(c2ccccc2Cl)N=C(Nc2nc3ccccc3o2)N1` (stereo not drawn), the IC50 in series [1] (read-out: IC50) is 34.4 µM.
With `CC1=C(C(=O)Nc2ccc(CO)cc2)C(c2ccccc2Cl)N=C(Nc2nc3ccccc3o2)N1` (stereo not drawn), the half-life in series [2] was over 30 min. In addition, in series [3], the solubility kinetic is under 1 µg/mL.
Regarding `COC(=O)Cc1nnc(NC(=O)C2=C(C)NC(Nc3nc4ccccc4o3)=NC2c2ccccc2Cl)s1` (stereo not drawn), the half-life in series [2] turned out to be 8.09 min. Besides, the solubility kinetic in series [3] is under 1 µg/mL.
Consider `CC1=C(C(=O)Nc2cccc(CCO)c2)C(c2ccccc2Cl)N=C(Nc2nc3ccccc3o2)N1` (stereo not drawn), for which the half-life in series [2] came out at 26.6 min.
In the case of `CCn1cc(CNC(=O)C2=C(C)NC(Nc3nc4cccc(N)c4o3)=NC2c2ccc(F)cc2Cl)cn1` (stereo not drawn), the concentration for half-maximal inhibition (IC50) in series [1] (read-out: IC50) worked out at 7.69 µM. Also, in series [2], the half-life stood at 18.8 min.
Take `COc1ccc([C@H]2N=C(Nc3nc4ccc(F)cc4o3)NC(C)=C2C(=O)Nc2cc(C(=O)O)ccn2)c(Cl)c1`: the IC50 in series [1] (read-out: IC50) stood at 19.3 µM.
For `CC1=C(C(=O)Nc2cc(C(=O)O)ccn2)C(c2ccc(C)cc2Cl)N=C(Nc2ncc(-c3ccccc3)o2)N1` (stereo not drawn), the half-life in series [2] was over 30 min. In addition, in series [3], the solubility kinetic is 42.2 µg/mL (≈ 77.7 µM).
Turning to `CC1=C(C(=O)Nc2nnc(-c3cccnc3)s2)C(c2ccccc2Cl)N=C(Nc2nc3cc(N)ccc3o2)N1` (stereo not drawn), the half-life in series [2] is over 30 min. The solubility kinetic in series [3] turned out to be 1.8 µg/mL (≈ 3.23 µM).
For the compound `CC1=C(C(=O)Nc2ccc(C(N)=O)cn2)C(c2ccccc2Cl)N=C(Nc2nc3ccc(F)cc3o2)N1` (stereo not drawn), in series [1] (read-out: IC50), the half-inhibitory concentration (IC50) worked out at 6.85 µM.
Consider `CC1=C(C(=O)Nc2cncc(C(=O)O)c2)C(c2ccccc2Cl)N=C(Nc2nc3ccccc3o2)N1` (stereo not drawn), for which the half-life in series [2] is over 30 min. The solubility kinetic in series [3] turned out to be 60.3 µg/mL (≈ 120 µM).
On to `CCn1cc(CNC(=O)C2=C(C)NC(Nc3nc4ccc(F)c(N)c4o3)=N[C@H]2c2ccc(C)cc2Cl)cn1`, for which, in series [1] (read-out: IC50), the IC50 is 0.97 µM. In addition, in series [3], the solubility kinetic was determined as 22.1 µg/mL (≈ 41.1 µM).
For the compound `COc1ccc([C@@H]2N=C(Nc3nc4ccc(F)cc4o3)NC(C)=C2C(=O)Nc2cc(C(=O)O)ccn2)c(Cl)c1`, the half-maximal inhibitory concentration (IC50) in series [1] (read-out: IC50) worked out at 1.99 µM.
Take `CC1=C(C(=O)Nc2ccc(-c3cn[nH]c3)cc2)C(c2ccccc2Cl)N=C(Nc2nc3ccccc3o2)N1` (stereo not drawn): in series [1] (read-out: IC50), the IC50 turned out to be 12.2 µM.
On to `CC1=C(C(=O)NCc2cn(C)cn2)C(c2ccccc2Cl)N=C(Nc2nc3ccc(F)cc3o2)N1` (stereo not drawn), for which, in series [1] (read-out: IC50), the IC50 came out at 19.3 µM.

For the origin of these results see ChEMBL document CHEMBL5050861 (2021).
